Earlier results on one substance are cited in US8388671B2, “Methods for treatment of aneurysmal tissue” (Medtronic Vascular, Inc., priority 2004, dated 2013).

For “hydroxy-polyethoxy-dodecane [Polidocanol]”, the LD50 in rabbits in the data set with rabbits is recorded as 200 mg/kg. Moreover, the “LD50 relative to that of Novocain” value in the data set on rabbits (LD50 greater than that of Novocain) is given as “approximately 5 times”. Moreover, the LD50 in mice with mice is reported as 1200 mg/kg.
